Source: US5670619A, “Bradykinin-antagonists for the treatment of acute pancreatitis” (Hoechst Aktiengesellschaft, priority 1991, dated 1997)

Tests used:
Format in all cases: in vivo
[1] = test system: bradykinin (injected, or split off from kininogen by kallikrein); experiment: Inhibition of the fall in blood pressure evoked by bradykinin and kallikrein in anaesthetized rabbits; settings: anaesthetized rabbit, peptide 3 nmol/kg i.v.
Procedure: Methods: Rabbits of either sex (3.5-5.0 kg) were anaesthetized with pentobarbitone sodium (35 mg/kg i.v.). Arterial blood pressure was monitored in a carotid artery using a Statham pressure transducer. I.v. injections of bradykinin (1 to 10 nmol/kg) or kallikrein (1 to 10 U/kg) were made into a jugular vein at intervals of 10 min. A peptide of the formula I (3 nmol/kg) was given i.v. and the injections of bradykinin or kallikrein were then repeated.

[2] = test system: caerulein-induced pancreatic oedema; experiment: Pancreatic oedema (water and Evans blue content of pancreas) in caerulein-induced pancreatitis in rats; settings: rat; for Pancreatic oedema: Evans blue / Pancreatic oedema: water: A s.c. 100 nmol/kg, mean ± SEM, n = 10
Source text: General methods: To induce experimental pancreatitis in animals, a number of procedures have been used including ligation of the pancreatic duct, injection of bile salts into the pancreatic duct, infusion of oleic acid, or infusion of the amphibian cholecystokinin analogue, caerulein. The latter procedure produces a hyperstimulation of the exocrine function of the pancreas and leads to morphological changes that share many features also seen in human acute pancreatitis (Willemer S., Bialek R., Kohler H. Adler G.; "Caerulein-induced acute pancreatitis in rats: changes in glycoprotein-composition of subcellular membrane systems in acinar cells;" Histochemistry 1990; 95; 87-96). Caerulein-induced pancreatitis in rats was used for the following experiments.
(§1) Method: Female Sprague-Dawley rats (260±30 g) were anaesthetized with pentobarbitone sodium (40 mg/kg, i.p.) and phenobarbitone sodium (160 mg/kg, i,p.). […] 10 min later, the animals were given a s.c. injection of a peptide of the formula I (100 nmol/kg) or of a corresponding volume (0.5 ml/kg) of a 154 mM sodium chloride solution. The systemic arterial blood pressure was monitored in a carotid artery using a Statham pressure transducer. A jugular vein was cannulated to allow the infusion of either caerulein (4 nmol/kg/h) or of physiological saline (0.034 ml/min). The infusion was started 30 min after the s.c. injection of a peptide of the formula I or saline, and lasted for 2 h. At the end of the experiment the animals were killed by decapitation; the blood was collected for the determination of serum amylase and lipase.
Method: Quantification of the pancreatic oedema was achieved by measuring the dry weight of pancreas and the accumulation of plasma proteins in pancreas. At the end of the infusions (see blood pressure experiments), the blood was collected for measuring enzymes in serum. The pancreas was excised and weighed. After drying the tissue, the difference between wet and dry weight, in relation to dry weight, was used as a measure for the water content of the tissue. 5 mg/kg of Evans blue, which quantitatively binds to serum albumin (Rawson R. A.: "The binding of T-1824 and structurally related diazo dyes by plasma proteins", Amer. J. Physiol. 1943, 138, 708-717) was injected i.v. immediately before the start of the i.v. infusion of caerulein or physiological saline. Thereafter the pancreatic tissue was used to measure Evans blue concentration photometrically (Gamse R., Holzer P., Lembeck F.: "Decrease of substance P in primary afferent neurones and impairment of neurogenic plasma extravasation by capsaicin", Br. J. Pharmacol. 1980, 68, 207-213; Saria A., Lundberg J. M.: "Evans blue fluorescence: quantitative and morphological evaluation of vascular permeability in animal tissues", J. Neurosci. Meth. 1983, 8, 41-49). Control animals were treated with corresponding volumes of saline instead of a peptide of the formula I or caerulein. Plasma extravasation was quantified as content of water and Evans blue in the pancreas.

[3] = test system: pancreatic enzymes in serum; experiment: Serum amylase and lipase activities in caerulein-induced pancreatitis in rats; settings: rat, A s.c., no CRL i.v., n = 6
Procedure: as §1
Methods: Serum amylase was determined using a kinetic colour test with 2-chlor-4-nitrophenyl-D-maltoheptoside (Amylase test kit Roche, F.R.G.). Serum lipase was measured by the reduction of the turbidity due to cleavage of triolein to monoglyceride and oleic acid (Monotest Lipase, Boehringer Mannheim, F.R.G.). The detection limits for amylase and lipase were 11 U/I and 16 U/l, respectively. Control animals were treated with corresponding volumes of saline instead of a peptide of the formula I.

[4] = test system: caerulein-induced increase of water and Evans blue content in the pancreas; experiment: Comparison of peptide A with the Berg et al. antagonist, given after onset of caerulein infusion in rats; settings: rat; given 10 minutes after the outset of the caerulein infusion; Berg antagonist in a dose 10 times higher than peptide A
Procedure: Additionally D-Arg^0 -HYP^3 -Thi^5.8 D-Phe^7 -BK disclosed by Berg et al. (see page 1) has been tested in comparision with the peptide A. Both antagonists were given in two groups of rats under identical conditions 10 minutes after the outset of the infusion of caerulein.

N=C(N)NCCC[C@@H](N)C(=O)N[C@@H](CCCNC(=N)N)C(=O)N1CCC[C@H]1C(=O)N1C[C@H](O)C[C@H]1C(=O)NCC(=O)N[C@@H](Cc1cccs1)C(=O)N[C@@H](CO)C(=O)N1Cc2ccccc2C[C@@H]1C(=O)N1[C@H](C(=O)N[C@@H](CCCNC(=N)N)C(=O)O)C[C@@H]2CCCC[C@@H]21 [peptide A, H-D-Arg-Arg-Pro-Hyp-Gly-Thi-Ser-D-Tic-Oic-Arg-OH]
fall in blood pressure evoked by bradykinin ([1]; bradykinin 1 to 10 nmol/kg i.v.): completely blocked | fall in blood pressure evoked by kallikrein ([1]; kallikrein 1 to 10 U/kg i.v.): completely blocked | Pancreatic oedema: Evans blue ([2]; CRL i.v.): 18.21 ± 4.24 μg/g dry wgt | Pancreatic oedema: water ([2]; CRL i.v.): 3.11 ± 0.33 g/g dry wgt | Pancreatic oedema: Evans blue ([2]; no CRL i.v.): 20.31 ± 5.80 μg/g dry wgt | Pancreatic oedema: water ([2]; no CRL i.v.): 2.62 ± 0.23 g/g dry wgt | CRL induced pancreatic oedema ([2]; result in words): completely inhibited | Serum Amylase activity ([3]; mean ± SEM): 3.19 ± 0.21 U/ml | Serum Lipase activity ([3]; nn = not detectable): nn | increase of Evans blue content in the pancreas [4]: completely inhibited | increase of water content in the pancreas [4]: completely inhibited
